{"source": "patent US6967217B1", "about": "“Process and composition for enhancing the action of vitamin a on the cellular activity of an individual, and use of vitamin c” (Natura Cosmetico S.A., priority 1998, dated 2005)", "origin": "cited, not measured here", "tested_on": "wrinkles", "details": "Retinol 0.034%; men and women with age between 22 and 34 years", "data": [{"smiles": "CC1=C(/C=C/C(C)=C/C=C/C(C)=C/CO)C(C)(C)CCC1", "note": "[Retinol]", "values": [{"measurement": "effect on wrinkles", "result": "reduce the amount and the deepness of wrinkles"}]}]}
